Experiment: xn = mol fraction of the nth substance listed
Details: Liquid, Vibrating tube method

CC1=CC[C@H]2C[C@@H]1C2(C)C [(S)-2-pinene] + C=C(C)[C@H]1CC=C(C)CC1
mass density [kg/m3]
Details | x2 = 0 | x2 = 0.0976 | x2 = 0.1991 | x2 = 0.2983 | x2 = 0.3955 | x2 = 0.5036 | x2 = 0.5967 | x2 = 0.7024 | x2 = 0.8084 | x2 = 0.906
283.15 K, 20000 kPa | 880 | 878.3 | 876.4 | 874.6 | 872.9 | 870.9 | 869.2 | 867.4 | 865.3 | 863.5
283.15 K, 25000 kPa | 883.2 | 881.4 | 879.3 | 877.6 | 875.8 | 873.8 | 872.1 | 870.3 | 868.3 | 866.6
283.15 K, 30000 kPa | 886.3 | 884.3 | 882.4 | 880.5 | 878.7 | 876.7 | 875.1 | 873.1 | 871.3 | 869.2
283.15 K, 35000 kPa | 889.4 | 887.5 | 885.4 | 883.4 | 881.7 | 879.7 | 878 | 876.1 | 873.9 | 871.9
283.15 K, 40000 kPa | 892.5 | 890.4 | 888.5 | 886.5 | 884.7 | 882.7 | 880.9 | 878.9 | 876.5 | 874.4
298.15 K, 20000 kPa | 868.8 | 866.9 | 865.4 | 863.5 | 861.7 | 860 | 858.4 | 856.9 | 855.1 | 853
298.15 K, 25000 kPa | 872.1 | 870.3 | 868.6 | 866.8 | 865 | 863.2 | 861.6 | 859.8 | 858 | 856.1
298.15 K, 30000 kPa | 875.3 | 873.5 | 871.7 | 869.8 | 868.1 | 866.3 | 864.7 | 862.8 | 861 | 859.1
298.15 K, 35000 kPa | 878.6 | 876.7 | 875 | 873.1 | 871.3 | 869.5 | 867.9 | 865.9 | 864.1 | 862.2
298.15 K, 40000 kPa | 881.9 | 880 | 878.1 | 876.3 | 874.5 | 872.6 | 871 | 869 | 867.1 | 865.2
313.15 K, 20000 kPa | 858 | 856.2 | 854.4 | 852.6 | 851 | 849.2 | 847.6 | 845.9 | 844.1 | 842.4
313.15 K, 25000 kPa | 861.3 | 859.5 | 857.7 | 855.9 | 854.3 | 852.5 | 851 | 849.2 | 847.4 | 845.7
313.15 K, 30000 kPa | 864.7 | 862.8 | 861.1 | 859.3 | 857.6 | 855.7 | 854.2 | 852.4 | 850.5 | 848.8
313.15 K, 35000 kPa | 867.9 | 866.2 | 864.5 | 862.6 | 860.9 | 858.9 | 857.4 | 855.6 | 853.8 | 852
313.15 K, 40000 kPa | 871.3 | 869.5 | 867.8 | 866 | 864.2 | 862.2 | 860.6 | 858.8 | 856.9 | 855.1

Reference: the NIST ThermoML archive (doi:10.1021/je1009619)
